Consider one compound from patent US7807658B2, “Use of GabaB receptor agonists” (AstraZeneca AB, priority 1999, dated 2010).

By melting point is commonly meant the temperature, or range, at which the solid turns liquid.

The structures appear in SMILES notation.

Regarding `NCC(=O)C[PH](=O)O`, the melting point was 126 to 127 °C.
